Reference: ChEMBL document CHEMBL1134848, “Synthesis and biological evaluation of a spongistatin AB-spiroketal analogue” (2002)

Key:
Assay type in all cases: functional
SF-268 = experiment: In vitro growth inhibitory activity on human CNS Gliobl (SF268) cell line
NCI-H460 = experiment: In vitro growth inhibitory activity on human Lung-NSC (NCI-H460) cell line
DU-145 = experiment: In vitro growth inhibitory activity on human Prostate (DU-145) cell line
MCF7 = experiment: In vitro growth inhibitory activity on human Breast adn (MCF-7) cell line
BXPC-3 = experiment: In vitro growth inhibitory activity on human Pancreas-a (BXPC-3) cell line
KM-20L2 = experiment: In vitro growth inhibitory activity on human Colon (KM20L2) cell line

Measured: GI50

OCC1CCCC2(CCCC(CO)O2)O1 (single isomer, unassigned; (-))
> 10 µg/mL: all assays above

CC(=O)OC1CC(CCO)OC2(C1)CC(C)(O)CC(CO)O2 (single isomer, unassigned; (-))
> 10 µg/mL: all assays above
